Tests used:
[1] = system: monocytes; assay: Induction of IFN-regulated genes and TNFα in monocytes by aPL or Tlr7 agonist; assay type: cell-based, mouse
Procedure: (B) Induction of IFN-regulated genes by aPL. (C) TF and Tnfα mRNA induction by aPL HL5B or HL7G stimulation of CD115+ splenocytes of indicated mice stimulated for 3 hours, as well as early ROS production; mean±SD, n=6; * p<0.0001; one-way ANOVA, Dunnett multiple-comparison test. (D) Live cell imaging of HL5B internalization in monocytes of indicated mouse strains. Bar=5 μm. (E) Live cell imaging of aPL HL5B Fab′2 or IgG colocalization with EPCR using non-inhibitory αEPCR 1489 in human MM1 cells. (F) Internalization of EPCR, FVIIa, and TF in MM1 cells stimulated for 15 minutes similarly required proteases and integrin trafficking. For quantification of internalization, surface staining was quenched with 0.4% trypan blue; mean±SD, n=6. * p<0.0001; one-way ANOVA, Dunnett multiple-comparison test compared to IgG control.
FXa generated by the coagulation initiator TF-FVIIa utilizes the endothelial protein C receptor (EPCR) for protease activated receptor (PAR) 2 cleavage that is specifically required for LPS-induced interferon (IFN) responses (15, 16).

[2] = system: EPCR^C/S pDC; assay: Mouse pDC and B cell co-culture with R848 and aPL HL5B, anti-cardiolipin titers; assay type: cell-based; conditions: co-cultures with EPCR^C/S pDC
Procedure: (A) Gbp2 mRNA induction after 1 hour stimulation with HL5B, HL7G, or LPS (100 ng/ml) in EPCR^C/S or WT monocytes with or without addition of LBPA. (B) WT monocytes were stimulated for 1 hour with IgG isolated from MRL/lpr lupus-prone or control MRL mice in the presence of the indicated antibodies to EPCR. (C) Human monocyte-derived DC were co-cultured with B cells in the presence of TLR7/8 agonist R848 and aPL HL5B with the indicated antibodies to human EPCR. Anti-cardiolipin titers were determined after 10 days. (D-F) Co-cultures of isolated spleen plasmacytoid dendritic cells (pDC) and B cells from the indicated mouse strains were co-cultured with Tlr7 agonist R848 and aPL HL5B for 10 days, followed by determination of anti-cardiolipin titers. IFNR^−/−, type I interferon receptor deficient mice.
Supporting this conclusion, anti-cardiolipin antibody production was absent when mouse pDC, but not B cells, were isolated from EPCR^C/S mice (FIG. 9D). Addition of LBPA or interferon a restored the expansion of anti-cardiolipin producing B cells in co-cultures with aPL signaling-deficient EPCR^C/S pDC (FIG. 9D). In contrast, cells deficient in LRP8, the receptor for β2GPI, produced anti-cardiolipin antibodies normally in response to co-stimulation of aPL and Tlr7 agonist (FIG. 9E).

[3] = system: MM1 cells; assay: aPL signaling and internalization in MM1 cells with sphingomyelinase inhibitor; assay type: cell-based, human
Procedure: (A) aPL-mediated TF activation, PS exposure measured by annexin 5 staining, ROS production and TNFα induction as well as (B) aPL internalization in MM1 cells was blocked by sphingomyelinase inhibitor desipramine. Bar=5 μm. (C) aPL-induced ASM activity in MM1 cells is blocked by inhibitors of FXa, thrombin, and PAR1 cleavage. (D) Live cell imaging of surface ASM exposure in MM1 cells after 30 minutes of stimulation with Fab′2 aPL HLSB. Bar=5 μm. (E) ASM activity in unstimulated cell lysates after addition of sEPCR-LBPA (2.504) is blocked by αEPCR 1682. For all ASM activity assays: mean±SD, n=3. * p<0.0003; one-way ANOVA, Dunnett multiple-comparison test. […] (G, H) Thrombosis induction by dual reactive aPL HL7G in the indicated mouse strains or WT mice in presence of indicated αEPCR. (F-H) Quantification of thrombus size 3 hours after aPL injection; median, interquartile range, and range; n=6-11; * p <0.004; one-way ANOVA, Dunnett multiple-comparison test compared to αEPCR 1650. (I, J) Thrombosis induction by aPL HLSB (I) or IgG isolated from age-matched 16 weeks old lupus-prone MRL/lpr and MRL control mice (J) in the indicated mouse strains. Quantification of thrombus size 3 hours after aPL injection; median, interquartile range, and range; (I) n=6-10; * p=0.001; unpaired t-test. (J) n=5; * p=0.0025; two-way ANOVA, Sidak's multiple comparisons test. […]

## CCOCc1nc2c(N)nc3ccccc3c2n1CC(C)(C)O [R848]
[1]
  induction of TNFα: upregulated only TNFα

## interferon a
[2]
  expansion of anti-cardiolipin producing B cells: restored

## CNCCCN1c2ccccc2CCc2ccccc21 [desipramine]
[3]
  aPL internalization: blocked
  aPL-mediated TF activation, PS exposure, ROS production and TNFα induction: blocked

From patent US20230043394A1, “METHODS FOR DETECTION OF PATHOGENIC ANTIPHOSPHOLIPID ANTIBODIES AND FOR IDENTIFICATION OF INHIBITORS” (UNIVERSITÄTSMEDIZIN DER JOHANNES GUTENBERG-UNIVERSITÄT MAINZ, priority 2019, published 2023)
